Patent publication US20030143228A1, “Human telomerase reverse transcriptase as a class-II restricted tumor-associated antigen” (Baylor College of Medicine, priority 2001, published 2003)
“Also recorded” adds a separate entry of the source.

Key:
Assay type in all cases: cell-based, human
T-cell clone = test: Flow cytometric analysis of T-cell clones; details: peptide-specific T-cell clone, anti-CD4-FITC / CD8-PE staining
Description: The T-cell clone was double-stained with anti-human CD4-FITC and CD8-PE antibodies or isotype controls (mouse IgG-FITC and IgG-PE) (BD PharMingen). The cells were then examined by flow cytometric analysis (Chen et al., 1997). More than 99% of the T-cell population were CD4-positive. Flow cytometric analysis verified that the T-cell clones were exclusively CD4-positive (FIG. 9A and FIG. 9B). Similar results were obtained from four different T916-specific T-cell clones. Taken together, the findings indicate that HLA-DR7-restricted epitopes reside in clones 8 and 35 and induce hTRT-specific human CD4+ T-cell responses.

[1] = tested on: peptide-specific CD4+ T-cell clones; test: Specificity and MHC restriction of peptide-specific T-cell clones (antibody blocking)
Description: The T916-positive T-cell clone, T631-positive T-cell or T672-positive T-cell (2×10^4 cells/well) were re-stimulated with autologous PBMC-derived DC (1×10^3/well) (Zhou et al., 1996) pulsed with T916, T631, T672 or irrelevant 15-mer peptides derived from HER-2 (SEQ.ID.NO.78, LSTDVGSCTLVCPLH) and EBV (SEQ.ID.NO.79, AYFMVFLQTHIFAEV) at the same concentration of 20 μg/ml in the presence of anti-HLA-DR (G46.4), anti-HLA-ABC (class I, G46.2.6), anti-CD4, or anti-CD8 (20 μg/ml, BD PharMingen). 48-72 hr later, GM-CSF release and [^3H]-thymidine incorporation of the T-cells were measured.
Further, antibody blocking assays were used to test whether the T-cell responses to peptides were MHC class II-restricted. […] Flow cytometric analysis of the responses to T-cell clones (FIG. 14A-FIG. 14F) confirmed clones were CD4-positive and CD 8-negative.

recombinant hTRT protein = test: T-cell recognition of natively processed hTRT protein presented by autologous DC
Description: A recombinant hTRT protein and an irrelevant Neu protein were produced and used to pulse PBMC-derived DC. Recombinant hTRT and Neu(extracellular domain)-Fc fusion proteins, were produced in SF9 insect cells by use of a baculovirus expression system (Gibco), purified by affinity binding to Protein A (Sigma), and tested by Western blot analysis with anti-hTRT (Santa Cruz) or anti-Neu (Oncogene) antibodies, respectively.
The T916-specific T-cells, T631-specific T-cells or T672-specific T-cells (2×10^4/well) were stimulated with irradiated autologous PBMC-derived DC (Zhou et al., 1996) (2×10^3/well) pulsed with recombinant hTRT-Fc proteins (1 μg/ml) in the presence or absence of anti-HLA-DR antibodies (20 μg/ml). The T-cell clones were also stimulated with DC pulsed with irrelevant recombinant Neu-Fc proteins (1 μg/ml). Recombinant hTRT Fc fusion proteins and Neu (extracellular domain)-Fc proteins were produced from […], purified with a Protein-A purification kit (Pierce), and confirmed by Western blot analysis with anti-hTRT (Santa Cruz) or anti-Neu (Oncogene) antibodies. 48 hr later, [^3H]-thymidine incorporation of the T-cells was then measured.
The ability of these T-cell clones to recognize naturally processed antigen in the form of recombinant hTRT protein was tested in experiments in which autologous PBMC or DC were used as APC and recombinant hTRT proteins as a source of antigen (FIG. 16).

[2] = tested on: peptide-specific CD4+ T-cell clones; test: Peptide titration of T-cell clones; details: autologous PBMCs
Description: To evaluate the avidity of hTRT916 and hTRT672 T-cell clones for their ligands, peptide titration curves were generated with autologous PBMCs. The maximal cell proliferation of the hTRT916 T-cell clone was obtained at a peptide concentration of 10 μg/ml, compared with only at a peptide concentration of 1 μg/ml for the hTRT672 T-cell clone (FIG. 7).
Yet further, the avidity of the hTRT631 T-cell clone for its ligand was also evaluated. Peptide titration curves were generated with autologous PBMCs. The half maximal cell proliferation of the hTRT631 T-cell clone was obtained at a peptide concentration of 0.1 μg/ml (FIG. 8).
The effectiveness of antitumor immunotherapy based on CD8+ and CD4+ T-cells depends on the ability of the latter to recognize naturally processed antigen presented by APC. This property depends in turn on correct processing of the epitope in the MHC class II pathway and the avidity of the epitope for its MHC/TCR-complex (Kobayashi, 2000). To determine whether the newly identified peptides were naturally processed antigens, the avidity of the specific T-cell clones for their ligands was evaluated. Peptide titration curves were generated with autologous DC as APC. For peptides hTRT631, hTRT766, hTRT787, the peptide concentrations required to obtain half of the maximal proliferation exceeded 1.0 μM (FIG. 15A-FIG. 15F).

[3] = tested on: Donor's peripheral blood mononuclear cells (PBMCs); test: Peptide T-cell proliferation assay with donor PBMC; details: peptide 20 μg/ml; positive if cpm at least 2.5 times PBMC without peptide
Description: Donor's peripheral blood mononuclear cells (PBMCs) were plated in 96-well plates (Costar) at 200,000 cells/well in AIM-V media (Gibco). Peptides were added into each well at the concentration of 20 μg/ml. After a week of incubation, the culture medium was removed and cells were resuspended in AIM-V media, seeded onto test plates and re-stimulated with autologous irradiated (2,000-6,000 rads) PBMC pulsed with the same peptides used in the primary stimulation (20 μg/ml). On day 2 of the re-stimulation, [^3H]-thymidine (1 uCi/well) was added to the test plates, and its incorporation by T-cells was measured on day 3. […] T-cell clones were established from positive T-cell lines by limiting dilution.
Because Th cells generally prefer to recognize peptides of about 15 residues in length, ten predicted peptides corresponding to promiscuous binding motifs of 15 mer or longer were synthesized and purified (Table 2). Human T-cell responses to these peptides were assessed by isolating PBMC from HLA-typed healthy donors with HLA-DR1, DR3, DR15, or other alleles and seeding them into 96-well plates that were subsequently stimulated with each peptide. After a week of stimulation, the cultures were tested for their capacity to respond to the peptides presented by autologous PBMC.

HLA-DR7+/hTRT+ LCL cells = test: T-cell direct responses to hTRT-positive cells
Description: The T-cells (5×10^3/well) were co-cultured with the irradiated HLA-DR7+/hTRT+ LCL cells (1×10^4/well) in the presence or absence of the anti-HLA-DR antibody (20 μg/ml). IFN-γ production of the T-cells was monitored by ELISPOT assay and cell proliferation was measured by [^3H]-thymidine incorporation compared with anti-DR sample.

[4] = tested on: T-cells primed by the pool 5-transduced DC; test: DC-based immunogenetic screening of tumor retrogen library, [3H]-thymidine incorporation; details: T-cells 2×10^5, DC 2×10^4
Description: cDNA from the mRNA of prostate tumor cells (DU145) were generated by cDNA synthesis kits (CLONTECH). cDNA with sizes of 400 bp or higher were digested with Sau3A I (Bio-Lab) after fractionation with SizeSep™ 400 columns (Amersham Pharmacia Biotech) and inserted into the BamH I-cut pSBFc-DS. Ligated DNA was then transformed into E. coli, and library quality was confirmed by examining dozens of individual clones with different insert sizes and DNA sequences. Individual colonies were then cultured individually and pooled for the isolation of plasmid DNA. Recombinant retroviral retrogen vectors (pools) were generated by transfection of the plasmid DNA pools into packaging cells with GeneJammer (Stratagene). Two or three days later, the culture medium containing the retroviral vectors was harvested, filtered, and then used for DC transduction or stored at −80° C.
DC-based immunogenetic screening approach was used to identify unknown class II-restricted TAA from a tumor retrogen library.
After several rounds of screening of 12,000 individual clones in the library, two sub-pools (5-VI-C and -D) containing genes capable of stimulating CD4+ T-cells were identified. The 40 individual clones in the sub-pools 5-VI-C and -D were individually transduced into autologous CD34+-derived DC. […]

GTAFVQMPAHGLFPW [Peptide T916]
T-cell population CD4-positive (T-cell clone): More than 99%
response of T-cells to autologous PBMC pulsed with peptide [1]: dosage-dependent manner
response of the peptide-specific T-cells to irrelevant peptides ([1]; irrelevant 15-mer peptides (HER-2, EBV/EBNA1) or non-corresponding hTRT peptides, 20 μg/ml): did not respond
restriction of T-cell response (antibody blocking) ([1]; peptide-pulsed autologous APC with anti-HLA-DR, anti-HLA class I, anti-HLA-DQ, anti-CD4 or anti-CD8 antibodies): both CD4- and HLA-DR-restricted; also recorded: MHC-II restricted epitopes
epitope classification (naturally processed or cryptic) (recombinant hTRT protein): are processed
response of peptide-specific T-cells to irrelevant Neu protein presented by autologous DC (recombinant hTRT protein; Neu-Fc 1 μg/ml): did not respond
recognition of hTRT protein after processing and presentation by autologous APC (recombinant hTRT protein; peptide-specific T-cell clone, DC or PBMC pulsed with recombinant hTRT protein): recognize the hTRT proteins
peptide concentration at maximal cell proliferation of the T-cell clone [2]: 10 µg/mL
proliferative T-cell responses from the donors' T-cells [3]: elicited proliferative T-cell responses
response of peptide-specific CD4+ T-cells to hTRT+/DR7+ LCL (HLA-DR7+/hTRT+ LCL cells; IFN-γ ELISPOT and [3H]-thymidine incorporation): active proliferation and production of INF-γ
effect of anti-HLA-DR antibody on T-cell response to hTRT+/DR7+ LCL (HLA-DR7+/hTRT+ LCL cells; antibody 20 μg/ml): drastically inhibited
response of peptide-specific CD4+ T-cells to hTRT+ LCL (DR3+) (HLA-DR7+/hTRT+ LCL cells; different class II genotype): did not respond

B1: clone 35: positive clone of the DU145 tumor retrogen library; ORF encodes a 171 aa hTRT polypeptide (SEQ.ID.NO.4) (nucleic acid)
DNA: ATCCCGCAGGGCTCCATCCTCTCCACGCTGCTCTGCAGCCTGTGCTACGGCGACATGGAGAACAAGCTGTTTGCGGGGATTCGGCGGGACGGGCTGCTCCTGCGTTTGGTGGATGATTTCTTGTTGGTGACACCTCACCTCACCCACGCGAAAACCTTCCTCAGGACCCTGGTCCGAGGTGTCCCTGAGTATGGCTGCGTGGTGAACTTGCGGAAGACAGTGGTGAACTTCCCTGTAGAAGACGAGGCCCTGGGTGGCACGGCTTTTGTTCAGATGCCGGCCCACGGCCTATTCCCCTGGTGCGGCCTGCTGCTGGATACCCGGACCCTGGAGGTGCAGAGCGACTACTCCAGCTATGCCCGGACCTCCATCAGAGCCAGTCTCACCTTCAACCGCGGCTTCAAGGCTGGGAGGAACATGCGTCGCAAACTCTTTGGGGTCTTGCGGCTGAAGTGTCACAGCCTGTTTCTGGATTTGCAGGTGAACAGCCTCCAGACGGTGTGCACCAACATCTACAAG
modifications: Human
T-cell response to autologous DC transduced with individual clones [4]: strong T-cell response

B2: clone 8: positive clone of the DU145 tumor retrogen library; ORF encodes a 291 aa hTRT polypeptide (SEQ.ID.NO.3) (nucleic acid)
DNA: ATCCTGGCCAAGTTCCTGCACTGGCTGATGAGTGTGTACGTCGTCGAGCTGCTCAGGTCTTTCTTTTATGTCACGGAGACCACGTTTCAAAAGAACAGGCTCTTTTTCTACCGGAAGAGTGTCTGGAGCAAGTTGCAAAGCATTGGAATCAGACAGCACTTGAAGAGGGTGCAGCTGCGGGAGCTGTCGGAAGCAGAGGTCAGGCAGCATCGGGAAGCCAGGCCCGCCCTGCTGACGTCCAGACTCCGCTTCATCCCCAAGCCTGACGGGCTGCGGCCGATTGTGAACATGGACTACGTCGTGGGAGCCAGAACGTTCCGCAGAGAAAAGAGGGCCGAGCGTCTCACCTCGAGGGTGAAGGCACTGTTCAGCGTGCTCAACTACGAGCGGGCGCGGCGCCCCGGCCTCCTGGGCGCCTCTGTGCTGGGCCTGGACGATATCCACAGGGCCTGGCGCACCTTCGTGCTGCGTGTGCGGGCCCAGGACCCGCCGCCTGAGCTGTACTTTGTCAAGGTGGATGTGACGGGCGCGTACGACACCATCCCCCAGGACAGGCTCACGGAGGTCATCGCCAGCATCATCAAACCCCAGAACACGTACTGCGTGCGTCGGTATGCCGTGGTCCAGAAGGCCGCCCATGGGCACGTCCGCAAGGCCTTCAAGAGCCACGTCTCTACCTTGACAGACCTCCAGCCGTACATGCGACAGTTCGTGGCTCACCTGCAGGAGACCAGCCCGCTGAGGGATGCCGTCGTCATCGAGCAGAGCTCCTCCCTGAATGAGGCCAGCAGTGGCCTCTTCGACGTCTTCCTACGCTTCATGTGCCACCACGCCGTGCGCATCAGGGGCAAGTCCTACGTCCAGTGCCAGGGG
modifications: Human
T-cell response to autologous DC transduced with individual clones [4]: strong T-cell response
